According to PubChem BioAssay (NCI):
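Five compound concentrations were applied to cells in 96-well plates for 48 hours; endpoints were derived by simple linear interpolation of the resulting dose-response curve. At the GI50, growth is halved. Definition used: TGI = concentration required for complete inhibition of growth.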

Columns and labels:
Experiment in all cases: DTP human tumour cell line panel, 48 h
[1] = test system: A498 renal
[2] = test system: CAKI-1 renal
[3] = test system: MALME-3M melanoma
[4] = test system: MOLT-4 leukemia
[5] = test system: SF-268 CNS
[6] = test system: SK-MEL-2 melanoma
[7] = test system: SK-MEL-28 melanoma
[8] = test system: SK-MEL-5 melanoma
[9] = test system: SNB-75 CNS
[10] = test system: U251 CNS

SMILES	GI50 [1] [µM]	TGI [1] [µM]	GI50 [2] [µM]	TGI [2] [µM]	GI50 [3] [µM]	TGI [3] [µM]	GI50 [4] [µM]	TGI [4] [µM]	GI50 [5] [µM]	TGI [5] [µM]	GI50 [6] [µM]	TGI [6] [µM]	GI50 [7] [µM]	TGI [7] [µM]	GI50 [8] [µM]	TGI [8] [µM]	GI50 [9] [µM]	TGI [9] [µM]	GI50 [10] [µM]	TGI [10] [µM]
Cc1ccc(C(NC(=O)c2ccccc2)c2ccc3cccnc3c2O)cc1 (stereo not given)	0.376	7.88	0.328	> 50.7	0.441	12.3	0.332	> 70.2	0.266	> 48.4	0.608	10.3	0.492	41.6	0.201	0.439	0.927	60	0.249	18.4
Cc1ccc(NC(=O)C2C(=O)N(c3ccc(C)c(C)c3)C(=O)/C2=N\NC(N)=O)cc1C (stereo not given)	–	> 100	–	> 100	–	> 100	–	> 100	–	> 100	–	> 100	–	> 100	–	> 100	–	> 100	–	> 100
CCOc1ccc2c(c1)[n+]([O-])c(-c1ccc(Br)cc1)c(N)[n+]2[O-]	–	> 100	–	64.1	–	> 100	–	> 100	–	> 100	–	> 100	–	> 100	–	40.9	–	> 100	–	> 100
NC1=NC(c2ccc(Cl)cc2)N(c2ccc(S(N)(=O)=O)cc2)C(N)=N1 (stereo not given)	–	> 100	–	> 100	–	> 100	–	> 100	–	> 100	–	> 100	–	> 100	–	> 100	–	> 100	–	> 100
S=c1nc(COc2ccc(Cl)cc2Cl)[nH][nH]1	–	> 100	–	> 100	–	> 100	–	> 100	–	> 100	–	> 100	–	> 100	–	> 100	–	> 100	–	> 100
